Data on eleven compounds can be found in PubChem BioAssay (NCI).

Test systems include ACHN renal; BT-549 breast; SNB-19 CNS; IGROV1 ovarian; 786-0 renal; NCI/ADR-RES ovarian; DU-145 prostate; SR leukemia.
What all share (test): NCI tumour cell line growth inhibition, 48 h

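Cells were grown in 96-well plates and exposed to each compound for 48 hours at five concentrations; endpoints were interpolated linearly between bracketing concentrations, or set to the highest concentration if not reached. Abbreviation: GI50, concentration required for 50% inhibition of growth. TGI is the concentration that stops growth completely.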

On to `CC(=O)NS(=O)(=O)c1ccc(-n2nc(-c3ccccc3)cc2C2=CC(=O)C=CC2=O)cc1`, for which the GI50 in the assay with ACHN renal is more than 100 µM; in the assay with BT-549 breast it was 48.9 µM; in the assay on SNB-19 CNS, more than 100 µM; in the assay on IGROV1 ovarian, more than 100 µM; in the assay on 786-0 renal it was 54.4 µM. For the same compound, the TGI in the assay with ACHN renal, in the assay on BT-549 breast, with SNB-19 CNS, in the assay with IGROV1 ovarian and in the assay with 786-0 renal was more than 100 µM in each case.

As for `CN(C)CCNc1c2c(c(NCCN(C)C)c3c(CO)c[nH]c13)C(=O)c1ccccc1C2=O`, the GI50 with ACHN renal is 1.92 µM; in the assay on BT-549 breast, 8.23 µM; with SNB-19 CNS it was 6.09 µM; with IGROV1 ovarian, 2.49 µM; in the assay on 786-0 renal it was 3.38 µM; in the assay with NCI/ADR-RES ovarian, 4.06 µM. Besides, the GI50 in the assay on DU-145 prostate is 2.17 µM. In addition, the TGI is 9.96 µM in the assay on ACHN renal; 23.5 µM with BT-549 breast; 22.3 µM in the assay on SNB-19 CNS; more than 40.7 µM in the assay on IGROV1 ovarian; 16.2 µM in the assay on 786-0 renal; 22.7 µM with NCI/ADR-RES ovarian. The compound further returned a TGI in the assay on DU-145 prostate of 12.7 µM.

Consider `C=C(C)[C@@H]1CC[C@]2(C)[C@H](CC=C3[C@@H]4[C@H](C)[C@@H](C)CC[C@]4(CO)CC[C@]32C)[C@@]1(C)CCCN`, for which the GI50 is 1.42 µM in the assay with ACHN renal; 2.56 µM in the assay with BT-549 breast; 2.11 µM with SNB-19 CNS; 0.885 µM in the assay on IGROV1 ovarian; 0.841 µM with 786-0 renal; 0.986 µM with NCI/ADR-RES ovarian. Moreover, the GI50 with DU-145 prostate was 1.21 µM. The TGI in the assay on ACHN renal was determined as 3.4 µM; in the assay on BT-549 breast, 9.23 µM; in the assay on SNB-19 CNS it was 8.11 µM; in the assay on IGROV1 ovarian it was 1.67 µM; in the assay with 786-0 renal, 1.58 µM; in the assay with NCI/ADR-RES ovarian it was 2.17 µM. This compound also came in with a TGI with DU-145 prostate of 3.01 µM.

As for `CCCNc1cccc(-n2ncc3c(N/N=C/c4ccncc4)ncnc32)c1`, the GI50 in the assay on SR leukemia is 1.18 µM; with ACHN renal, more than 6.92 µM; with BT-549 breast, more than 8.4 µM; with SNB-19 CNS it was more than 25 µM; in the assay on 786-0 renal, more than 25 µM; in the assay with NCI/ADR-RES ovarian it was 1.93 µM. For the same compound, the GI50 in the assay with DU-145 prostate is more than 25 µM. In addition, the TGI in the assay with SR leukemia, in the assay with ACHN renal, in the assay with BT-549 breast, in the assay on SNB-19 CNS, with 786-0 renal and with NCI/ADR-RES ovarian was more than 25 µM throughout. For the same compound, the TGI in the assay on DU-145 prostate is more than 25 µM.

As for `C=Cc1cnc([N+](=O)[O-])n1C`, the TGI in the assay on SR leukemia was 60.5 µM; in the assay with ACHN renal, more than 100 µM; in the assay with BT-549 breast, more than 100 µM; in the assay on SNB-19 CNS it was more than 100 µM; in the assay on 786-0 renal it was more than 100 µM; in the assay with NCI/ADR-RES ovarian, more than 100 µM. The TGI in the assay on DU-145 prostate was more than 100 µM.

As to `Cn1c(O)c(N=NC(N)=S)c2ccccc21`, the GI50 with SR leukemia is 90.1 µM; with ACHN renal, 51.2 µM; with BT-549 breast, more than 100 µM; in the assay on SNB-19 CNS, more than 100 µM; in the assay on 786-0 renal it was 58.7 µM; in the assay with NCI/ADR-RES ovarian, 47.4 µM. Also, the GI50 with DU-145 prostate was 53.7 µM. In addition, the TGI in the assay on SR leukemia, with ACHN renal, in the assay on BT-549 breast, in the assay on SNB-19 CNS, in the assay on 786-0 renal and with NCI/ADR-RES ovarian was more than 100 µM each time. In addition, in the assay with DU-145 prostate, the TGI is more than 100 µM.

Take `O=C(c1ccccc1)c1ccccc1C(=O)c1ccccc1`: the GI50 with SR leukemia was 41.7 µM; in the assay on ACHN renal, 45.7 µM; in the assay with BT-549 breast it was 32 µM; in the assay with SNB-19 CNS it was more than 100 µM; with 786-0 renal it was 50.6 µM; with NCI/ADR-RES ovarian, 27.4 µM. Further, the GI50 with DU-145 prostate is 88.1 µM. Moreover, the TGI in the assay on SR leukemia, with ACHN renal, in the assay on BT-549 breast, in the assay with SNB-19 CNS, in the assay on 786-0 renal and in the assay on NCI/ADR-RES ovarian was more than 100 µM throughout. The compound further showed a TGI in the assay on DU-145 prostate of more than 100 µM.

As for `C(#Cc1ccccc1C#Cc1ccccn1)c1ccccn1`, the GI50 is 15.6 µM with ACHN renal; 23.6 µM with BT-549 breast; 18 µM in the assay on SNB-19 CNS; 18.3 µM in the assay with 786-0 renal; 5.45 µM in the assay on NCI/ADR-RES ovarian; 19.8 µM in the assay with DU-145 prostate. Moreover, the TGI in the assay on ACHN renal was 29.6 µM; in the assay with BT-549 breast, 45.2 µM; with SNB-19 CNS it was 39.3 µM; with 786-0 renal, more than 100 µM; with NCI/ADR-RES ovarian, 29.4 µM; with DU-145 prostate it was 38 µM.

In the case of `CC(C)=CCC/C(C)=C/[C@H]1OC(=O)CC12C[C@H](O)C=CC2=O` (some centres not stated), the GI50 with SR leukemia is 0.383 µM; in the assay with BT-549 breast it was 0.802 µM; in the assay with SNB-19 CNS, 1.36 µM; in the assay on IGROV1 ovarian it was 1.65 µM; in the assay on 786-0 renal it was 0.727 µM; in the assay with NCI/ADR-RES ovarian it was 0.553 µM. Moreover, in the assay on DU-145 prostate, the GI50 was 0.529 µM. The TGI in the assay on SR leukemia was more than 100 µM; with BT-549 breast, 3.17 µM; in the assay with SNB-19 CNS, 2.64 µM; with 786-0 renal, 1.93 µM; in the assay with NCI/ADR-RES ovarian, 2.47 µM; in the assay with DU-145 prostate, 2.18 µM.

Take `COc1cc(CC2CC(c3ccc4c(c3)OCO4)OC2=O)cc(OC)c1OC` (configuration not stated): the TGI in the assay on SR leukemia, in the assay with ACHN renal, in the assay on SNB-19 CNS, with 786-0 renal, in the assay on NCI/ADR-RES ovarian and with DU-145 prostate was more than 100 µM throughout.

As for `S=C(Nc1ccccc1)N1CCn2c1nsc2=Nc1ccccc1`, the GI50 is 50.3 µM in the assay on ACHN renal; 76.7 µM in the assay on BT-549 breast; more than 100 µM in the assay on SNB-19 CNS; 50.2 µM with IGROV1 ovarian; 53.3 µM in the assay with 786-0 renal; more than 100 µM in the assay with NCI/ADR-RES ovarian. Further, the GI50 in the assay on DU-145 prostate is more than 100 µM. The TGI in the assay on ACHN renal, in the assay on BT-549 breast, in the assay on SNB-19 CNS, in the assay with IGROV1 ovarian, in the assay with 786-0 renal and in the assay on NCI/ADR-RES ovarian was more than 100 µM in each case. The same compound had a TGI in the assay with DU-145 prostate of more than 100 µM.
